According to patent publication US8283361B2 (AstraZeneca AB, priority 2008, dated 2012):
Counter-ions that a name gives are not always drawn.

Each compound was assayed against S. aureus GyrB ATPase (Staphylococcus aureus, UniProt P0A0K8) (assay: biochemical). Conditions: compound at 1 μM; one value per test if tested more than once; 1 µM.
Method: S. aureus GyrB ATPase Inhibition Activity: Compounds may be tested for inhibition of S. aureus GyrB ATPase activity using an ammonium molybdate/malachite green-based phosphate detection assay (Lanzetta, P. A., L. J. Alvarez, P. S. Reinach, and O. A. Candia, 1979, 100: 95-97). Assays can be performed in multiwell plates in 30 μl reactions containing: 50 mM Hepes buffer pH 7.5, 75 mM ammonium acetate, 8.0 mM magnesium chloride, 0.5 mM ethylenediaminetetraacetic acid, 5% glycerol, 1.0 mM 1,4-Dithio-DL-threitol, 200 nM bovine serum albumin, 1.0 μg/m1 sheared salmon sperm DNA, 250 pM E. coli GyrA, 250 pM S. aureus GyrB, 250 μM ATP, and compound in dimethylsulfoxide. Reactions can be quenched with 30 μl of ammonium molybdate/malachite green detection reagent containing 1.2 mM malachite green hydrochloride, 8.5 mM ammonium molybdate tetrahydrate, and 1 M hydrochloric acid. […] An IC50 measurement of compound potency for each compound can be determined from reactions performed in the presence of 10 different compound concentrations.

Chain of S. aureus GyrB ATPase (P0A0K8 whole entry): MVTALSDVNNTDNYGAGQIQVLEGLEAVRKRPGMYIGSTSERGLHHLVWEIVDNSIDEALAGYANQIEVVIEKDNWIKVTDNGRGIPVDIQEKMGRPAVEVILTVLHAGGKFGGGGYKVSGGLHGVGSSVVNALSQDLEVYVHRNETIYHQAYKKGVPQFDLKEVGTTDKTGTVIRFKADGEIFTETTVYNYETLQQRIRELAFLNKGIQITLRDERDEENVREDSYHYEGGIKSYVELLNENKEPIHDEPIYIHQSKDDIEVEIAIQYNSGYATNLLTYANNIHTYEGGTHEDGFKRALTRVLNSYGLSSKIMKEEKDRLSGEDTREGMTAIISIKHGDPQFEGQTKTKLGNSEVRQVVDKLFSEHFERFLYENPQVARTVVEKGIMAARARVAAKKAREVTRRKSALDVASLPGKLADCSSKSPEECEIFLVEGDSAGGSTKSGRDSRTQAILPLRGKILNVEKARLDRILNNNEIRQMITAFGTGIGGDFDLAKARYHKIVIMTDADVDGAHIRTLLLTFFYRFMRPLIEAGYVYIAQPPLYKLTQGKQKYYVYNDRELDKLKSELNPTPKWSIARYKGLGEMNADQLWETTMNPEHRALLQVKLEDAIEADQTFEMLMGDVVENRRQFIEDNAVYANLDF
Chain of S. aureus GyrB ATPase (P0AES4 whole entry, further chain): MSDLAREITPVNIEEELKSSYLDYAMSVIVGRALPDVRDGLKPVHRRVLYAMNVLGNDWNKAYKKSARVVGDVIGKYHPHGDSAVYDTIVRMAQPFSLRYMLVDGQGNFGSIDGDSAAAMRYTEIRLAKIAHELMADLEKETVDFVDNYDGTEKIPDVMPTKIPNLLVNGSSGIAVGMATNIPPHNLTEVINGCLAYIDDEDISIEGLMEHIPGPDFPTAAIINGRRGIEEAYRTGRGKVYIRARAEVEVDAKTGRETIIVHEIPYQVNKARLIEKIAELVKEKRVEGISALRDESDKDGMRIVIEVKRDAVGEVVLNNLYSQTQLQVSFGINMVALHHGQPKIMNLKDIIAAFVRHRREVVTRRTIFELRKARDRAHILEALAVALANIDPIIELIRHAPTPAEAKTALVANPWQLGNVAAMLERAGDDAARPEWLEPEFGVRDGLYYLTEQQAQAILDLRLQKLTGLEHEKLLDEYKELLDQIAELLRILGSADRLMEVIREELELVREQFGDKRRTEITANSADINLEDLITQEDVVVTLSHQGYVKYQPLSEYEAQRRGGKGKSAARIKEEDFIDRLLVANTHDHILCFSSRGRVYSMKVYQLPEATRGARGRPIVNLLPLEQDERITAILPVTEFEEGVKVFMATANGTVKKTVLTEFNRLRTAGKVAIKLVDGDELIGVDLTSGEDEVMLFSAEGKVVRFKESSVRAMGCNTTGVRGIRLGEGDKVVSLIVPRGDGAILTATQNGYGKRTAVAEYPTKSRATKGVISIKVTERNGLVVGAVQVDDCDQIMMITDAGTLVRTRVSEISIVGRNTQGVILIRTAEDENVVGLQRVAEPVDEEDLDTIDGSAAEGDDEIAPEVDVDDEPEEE

In the case of `CCNC(=O)Nc1cc(-c2nc(C(F)(F)F)cs2)c(-c2ccc3c(c2)c(=O)c(C(=O)O)cn3[C@H](CO)CC(C)C)cn1` [Example 95, (S)-6-(6-(3-ethylureido)-4-(4-(trifluoromethyl)thiazol-2-yl)pyridin-3-yl)-1-(1-hydroxy-4-methylpentan-2-yl)-4-oxo-1,4-dihydroquinoline-3-carboxylic acid], the “% Inhibition of S. aureus GyrB ATPase” value is reported as 109%.

Same assay, conditions: compound at 1 μM; one value per test if tested more than once; read-out: % Inhibition of S. aureus GyrB ATPase

Going from `CCNC(=O)Nc1cc(-c2nc(C(F)(F)F)cs2)c(-c2ccc3c(c2)c(=O)c(C(=O)O)cn3[C@@H](CO)C(C)C)cn1` [Example 85, (R)-6-(6-(3-ethylureido)-4-(4-(trifluoromethyl)thiazol-2-yl)pyridin-3-yl)-1-(1-hydroxy-3-methylbutan-2-yl)-4-oxo-1,4-dihydroquinoline-3-carboxylic acid] to `CCNC(=O)Nc1cc(-c2nc(C(F)(F)F)cs2)c(-c2ccc3c(c2)c(=O)c(C(=O)O)cn3[C@@H](CC)CO)cn1` [Example 86, (S)-6-(6-(3-ethylureido)-4-(4-(trifluoromethyl)thiazol-2-yl)pyridin-3-yl)-1-(1-hydroxybutan-2-yl)-4-oxo-1,4-dihydroquinoline-3-carboxylic acid], the inhibition at 1 µM rises from 96% to 98%.

Compared with `CCCNC(=O)Nc1cc(-c2nc(C(F)(F)F)cs2)c(-c2ccc3c(c2)c(=O)c(C(=O)O)cn3[C@H](CO)CC(C)C)cn1` [Example 87, (S)-1-(1-hydroxy-4-methylpentan-2-yl)-4-oxo-6-(6-(3-propylureido)-4-(4-(trifluoromethyl)thiazol-2-yl)pyridin-3-yl)-1,4-dihydroquinoline-3-carboxylic acid], `CCNC(=O)Nc1cc(-c2nc(C(F)(F)F)cs2)c(-c2ccc3c(c2)c(=O)c(C(=O)NC)cn3[C@H](CO)CC(C)C)cn1` [Example 96, (S)-6-(6-(3-ethylureido)-4-(4-(trifluoromethyl)thiazol-2-yl)pyridin-3-yl)-1-(1-hydroxy-4-methylpentan-2-yl)-N-methyl-4-oxo-1,4-dihydroquinoline-3-carboxamide] is lower in inhibition at 1 µM: 96% for the first, 95% for the second.

Going from `CCNC(=O)Nc1cc(-c2nc(C(F)(F)F)cs2)c(-c2ccc3c(c2)c(=O)c(C(=O)O)cn3C[C@@H]2CCCO2)cn1` [Example 88, (S)-6-(6-(3-ethylureido)-4-(4-(trifluoromethyl)thiazol-2-yl)pyridin-3-yl)-4-oxo-1-((tetrahydrofuran-2-yl)methyl)-1,4-dihydroquinoline-3-carboxylic acid] to `CCNC(=O)Nc1cc(-c2nc(C(F)(F)F)cs2)c(-c2ccc3c(c2)c(=O)c(C(=O)O)cn3CC2CCOCC2)cn1` [Example 90, 6-(6-(3-ethylureido)-4-(4-(trifluoromethyl)thiazol-2-yl)pyridin-3-yl)-4-oxo-1-((tetrahydro-2H-pyran-4-yl)methyl)-1,4-dihydroquinoline-3-carboxylic acid], the inhibition at 1 µM rises from 90% to 97%.

First: CCNC(=O)Nc1cc(-c2nc(C(F)(F)F)cs2)c(-c2ccc3c(c2)c(=O)c(C(=O)O)cn3CCC2CCN(C)CC2)cn1 [Example 89, 6-(6-(3-ethylureido)-4-(4-(trifluoromethyl)thiazol-2-yl)pyridin-3-yl)-1-(2-(1-methylpiperidin-4-yl)ethyl)-4-oxo-1,4-dihydroquinoline-3-carboxylic acid]
Second: CCNC(=O)Nc1cc(-c2nc(C(F)(F)F)cs2)c(-c2ccc3c(c2)c(=O)c(C(=O)O)cn3CC2CCN(C)CC2)cn1 [Example 94, 6-(6-(3-ethylureido)-4-(4-(trifluoromethyl)thiazol-2-yl)pyridin-3-yl)-1-((1-methylpiperidin-4-yl)methyl)-4-oxo-1,4-dihydroquinoline-3-carboxylic acid]
The inhibition at 1 µM of the first is lower: 91% for the first, 95% for the second.

First: CCNC(=O)Nc1cc(-c2nc(C(F)(F)F)cs2)c(-c2ccc3c(c2)c(=O)c(C(=O)O)cn3C(CC)CO)cn1 (centres unmarked) [Example 93, 6-(6-(3-ethylureido)-4-(4-(trifluoromethyl)thiazol-2-yl)pyridin-3-yl)-1-(1-hydroxybutan-2-yl)-4-oxo-1,4-dihydroquinoline-3-carboxylic acid]
Second: CCNC(=O)Nc1cc(-c2nc(C(F)(F)F)cs2)c(-c2ccc3c(c2)c(=O)c(C(=O)O)cn3C(C)CN(C)C)cn1 (centres unmarked) [Example 126, 1-(1-(dimethylamino)propan-2-yl)-6-(6-(3-ethylureido)-4-(4-(trifluoromethyl)thiazol-2-yl)pyridin-3-yl)-4-oxo-1,4-dihydroquinoline-3-carboxylic acid]
The inhibition at 1 µM of the first is lower: 95% for the first, 117% for the second.

`CCNC(=O)Nc1cc(-c2nc(C(F)(F)F)cs2)c(-c2ccc3c(c2)c(=O)c(C(=O)O)cn3C2(CO)CCOCC2)cn1` [Example 122, 6-(6-(3-ethylureido)-4-(4-(trifluoromethyl)thiazol-2-yl)pyridin-3-yl)-1-(4-(hydroxymethyl)tetrahydro-2H-pyran-4-yl)-4-oxo-1,4-dihydroquinoline-3-carboxylic acid] and `CCNC(=O)Nc1cc(-c2nc(C(F)(F)F)cs2)c(-c2ccc3c(c2)c(=O)c(C(=O)O)cn3CC2CCCCN2)cn1` (centres unmarked) [Example 123, 6-(6-(3-ethylureido)-4-(4-(trifluoromethyl)thiazol-2-yl)pyridin-3-yl)-4-oxo-1-(piperidin-2-ylmethyl)-1,4-dihydroquinoline-3-carboxylic acid] are the same in inhibition at 1 µM: 95% for the first, 95% for the second.

Compared with `CCNC(=O)Nc1cc(-c2nc(C(F)(F)F)cs2)c(-c2ccc3c(c2)c(=O)c(C(=O)O)cn3Cc2ccncc2)cn1` [Example 124, 6-(6-(3-ethylureido)-4-(4-(trifluoromethyl)thiazol-2-yl)pyridin-3-yl)-4-oxo-1-(pyridin-4-ylmethyl)-1,4-dihydroquinoline-3-carboxylic acid], `CCNC(=O)Nc1cc(-c2nc(C(F)(F)F)cs2)c(-c2ccc3c(c2)c(=O)c(C(=O)O)cn3Cc2cn(C)cn2)cn1` [Example 125, 6-(6-(3-ethylureido)-4-(4-(trifluoromethyl)thiazol-2-yl)pyridin-3-yl)-1-((1-methyl-1H-imidazol-4-yl)methyl)-4-oxo-1,4-dihydroquinoline-3-carboxylic acid] is higher in inhibition at 1 µM: 87% for the first, 93% for the second.

Going from `CCNC(=O)Nc1cc(-c2nc(C(F)(F)F)cs2)c(-c2ccc3c(c2)c(=O)c(C(=O)O)cn3CC2CCCCN2C)cn1` (centres unmarked) [Example 127, 6-(6-(3-ethylureido)-4-(4-(trifluoromethyl)thiazol-2-yl)pyridin-3-yl)-1-((1-methylpiperidin-2-yl)methyl)-4-oxo-1,4-dihydroquinoline-3-carboxylic acid, formic acid salt] to `CCNC(=O)Nc1cc(-c2nc(C(F)(F)F)cs2)c(-c2ccc3c(c2)c(=O)c(C(=O)NC)cn3[C@H](C(=O)O)C(C)C)cn1` [Example 130, (S)-2-(6-(6-(3-ethylureido)-4-(4-(trifluoromethyl)thiazol-2-yl)pyridin-3-yl)-3-(methylcarbamoyl)-4-oxoquinolin-1(4H)-yl)-3-methylbutanoic acid], the inhibition at 1 µM falls from 117% to 101%.

First: CCNC(=O)Nc1cc(-c2nc(C(F)(F)F)cs2)c(-c2ccc3c(c2)c(=O)c(C(=O)NC2CCOCC2)cn3C(COC)COC)cn1 [Example 128, 1-(1,3-dimethoxypropan-2-yl)-6-(6-(3-ethylureido)-4-(4-(trifluoromethyl)thiazol-2-yl)pyridin-3-yl)-4-oxo-N-(tetrahydro-2H-pyran-4-yl)-1,4-dihydroquinoline-3-carboxamide]
Second: CCNC(=O)Nc1cc(-c2nc(C(F)(F)F)cs2)c(-c2ccc3c(c2)c(=O)c(C(=O)NC)cn3C(COC)COC)cn1 [Example 129, 1-(1,3-dimethoxypropan-2-yl)-6-(6-(3-ethylureido)-4-(4-(trifluoromethyl)thiazol-2-yl)pyridin-3-yl)-N-methyl-4-oxo-1,4-dihydroquinoline-3-carboxamide]
The inhibition at 1 µM of the first is lower: 92% for the first, 93% for the second.

`CCNC(=O)Nc1cc(-c2nc(C(F)(F)F)cs2)c(-c2ccc3c(c2)c(=O)c(C(=O)N2CCNCC2)cn3C(COC)COC)cn1` [Example 140, 1-{5-[1-(1,3-dimethoxypropan-2-yl)-4-oxo-3-(piperazin-1-ylcarbonyl)-1,4-dihydroquinolin-6-yl]-4-[4-(trifluoromethyl)-1,3-thiazol-2-yl]pyridin-2-yl}-3-ethylurea] and `CCNC(=O)Nc1cc(-c2nc(C(F)(F)F)cs2)c(-c2ccc3c(c2)c(=O)c(C(=O)N2CCN(C)CC2)cn3C(COC)COC)cn1` [Example 143, 1-(5-{1-(1,3-dimethoxypropan-2-yl)-3-[(4-methylpiperazin-1-yl)carbonyl]-4-oxo-1,4-dihydroquinolin-6-yl}-4-[4-(trifluoromethyl)-1,3-thiazol-2-yl]pyridin-2-yl)-3-ethylurea] are the same in inhibition at 1 µM: 95% for the first, 95% for the second.

`CCNC(=O)Nc1cc(-c2nc(C(F)(F)F)cs2)c(-c2ccc3c(c2)c(=O)c(C(=O)N2CCN(CCO)CC2)cn3C(COC)COC)cn1` [Example 141, 1-{5-[1-(1,3-dimethoxypropan-2-yl)-3-{[4-(2-hydroxyethyl)piperazin-1-yl]carbonyl}-4-oxo-1,4-dihydroquinolin-6-yl]-4-[4-(trifluoromethyl)-1,3-thiazol-2-yl]pyridin-2-yl}-3-ethylurea] and `CCNC(=O)Nc1cc(-c2nc(C(F)(F)F)cs2)c(-c2ccc3c(c2)c(=O)c(C(=O)N2CCN(S(=O)(=O)N(C)C)CC2)cn3C(COC)COC)cn1` [Example 142, 4-{[1-(1,3-dimethoxypropan-2-yl)-6-{6-[(ethylcarbamoyl)amino]-4-[4-(trifluoromethyl)-1,3-thiazol-2-yl]pyridin-3-yl}-4-oxo-1,4-dihydroquinolin-3-yl]carbonyl}-N,N-dimethylpiperazine-1-sulfonamide] are the same in inhibition at 1 µM: 97% for the first, 97% for the second.
